From patent publication US8906925B2, “Pyrido[4,3-B]indoles containing rigid moieties” (Medivation Technologies, Inc., priority 2008, dated 2014)
Where two headings read alike, the source gives them in different places.

Legend:
[1] = target: T1, human recombinant adrenergic α2B receptor (Homo sapiens, UniProt P18089); assay: Adrenergic α2B radioligand binding ([3H]Rauwolscine); conditions: compound at 1 μM
T1 construct: expressed in transfected cells; host or cells: Chinese hamster ovary (CHO-K1) cells
T1 sequence (P18089 1-450): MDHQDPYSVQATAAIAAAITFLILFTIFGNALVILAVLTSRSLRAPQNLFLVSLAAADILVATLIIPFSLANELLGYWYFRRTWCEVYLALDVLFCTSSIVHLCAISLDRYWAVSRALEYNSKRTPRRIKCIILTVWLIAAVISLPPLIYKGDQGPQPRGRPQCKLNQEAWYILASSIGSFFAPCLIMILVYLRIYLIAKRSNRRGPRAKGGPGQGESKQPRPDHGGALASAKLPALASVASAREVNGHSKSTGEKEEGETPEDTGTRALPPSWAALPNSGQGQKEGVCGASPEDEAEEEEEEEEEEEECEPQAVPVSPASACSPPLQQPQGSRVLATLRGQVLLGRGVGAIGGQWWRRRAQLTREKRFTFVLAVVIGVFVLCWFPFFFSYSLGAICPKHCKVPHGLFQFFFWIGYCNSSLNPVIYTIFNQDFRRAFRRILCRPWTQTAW
Method in brief: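 Membranes from CHO-K1 cells expressing the receptor were incubated with 2.5 nM [3H]Rauwolscine for 60 min at 25 °C in Tris-HCl buffer pH 7.4 with MgCl2, EDTA and BSA. Non-specific binding was defined with 10 μM prazosin. Compounds were tested at ≤1 μM in 1% DMSO and read out as % inhibition of specific binding after filtration.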

[2] = target: histamine receptor H1 (Homo sapiens, UniProt P35367); assay: Histamine H1 radioligand binding ([3H]Pyrilamine); conditions: for inhibition at 1 µM: read-out: Histamine Binding (1 μM) H1, percent inhibition of specific binding, 1 μM
Method in brief: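 Values are percent inhibition of specific [3H]pyrilamine (1.2 nM) binding with compounds at ≤1 μM (1% DMSO vehicle); 180 min incubation at 25 °C, pH 7.4 Tris buffer, on CHO-expressed human H1 receptor; 1 μM pyrilamine defined nonspecific binding, bound ligand counted after filtration.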

[3] = target: human dopamine D2L receptor (Homo sapiens, UniProt P14416); assay: Dopamine D2L radioligand binding ([3H]Spiperone); conditions: compound at 1 μM; for Inhibition of ligand binding, Dopamine D2L: 1 µM
From the text: Non-specific binding was estimated in the presence of […] Haloperidol. Receptor proteins were filtered and washed, the filters were then counted to determine [^3H]Spiperone specifically bound. […] Biochemical assay results are presented as the percent inhibition of specific binding in Table 9.

[4] = target: T2, human recombinant serotonin (5-Hydroxytryptamine) 5-HT2C receptor (Homo sapiens, UniProt P28335); assay: Serotonin 5-HT2C radioligand binding ([3H]Mesulergine); conditions: for inhibition at 1 µM / Inhibition of ligand binding, Serotonin 5-HT2C (percent inhibition of specific binding): compound at 1 μM; for Inhibition of ligand binding, Serotonin 5-HT2C (percent inhibition of specific binding): 1 µM
T2 construct: expressed in transfected cells; host or cells: Chinese hamster ovary (CHO-K1) cells
T2 sequence (P28335 33-458): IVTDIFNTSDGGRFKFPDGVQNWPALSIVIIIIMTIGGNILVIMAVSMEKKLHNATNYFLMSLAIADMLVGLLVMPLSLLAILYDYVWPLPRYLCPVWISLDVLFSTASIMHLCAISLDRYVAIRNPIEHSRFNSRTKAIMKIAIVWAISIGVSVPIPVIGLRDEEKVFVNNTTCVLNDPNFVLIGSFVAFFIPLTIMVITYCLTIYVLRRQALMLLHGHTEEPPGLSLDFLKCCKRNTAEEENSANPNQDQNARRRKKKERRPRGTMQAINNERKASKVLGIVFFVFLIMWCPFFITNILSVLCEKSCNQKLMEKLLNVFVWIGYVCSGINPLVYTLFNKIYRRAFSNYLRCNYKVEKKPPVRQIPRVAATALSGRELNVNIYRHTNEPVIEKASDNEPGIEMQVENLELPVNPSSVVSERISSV
Method in brief: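 Compounds tested at 1 μM or lower (1% DMSO vehicle) for displacement of 1 nM [3H]Mesulergine over 60 min at 25° C. Specific binding determined by filtration counting, with 1 μM Mianserin defining non-specific binding; values are percent inhibition.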

[5] = percent inhibition of specific binding, read-out: Inhibition of ligand binding, Adrenergic α2B
[6] = percent inhibition of specific binding, read-out: Inhibition of ligand binding, Dopamine D2L
[7] = read-out: Inhibition of ligand binding, Serotonin 5-HT2C (percent inhibition of specific binding)
[8] = percent inhibition of specific binding
[9] = […] [3H]Rauwolscine, read-out: Inhibition of ligand binding, Adrenergic α2B (percent inhibition of specific binding)
[10] = […] [3H]Spiperone, read-out: Inhibition of ligand binding, Dopamine D2L (percent inhibition of specific binding)

Sequence of human dopamine D2L receptor (P14416 whole entry): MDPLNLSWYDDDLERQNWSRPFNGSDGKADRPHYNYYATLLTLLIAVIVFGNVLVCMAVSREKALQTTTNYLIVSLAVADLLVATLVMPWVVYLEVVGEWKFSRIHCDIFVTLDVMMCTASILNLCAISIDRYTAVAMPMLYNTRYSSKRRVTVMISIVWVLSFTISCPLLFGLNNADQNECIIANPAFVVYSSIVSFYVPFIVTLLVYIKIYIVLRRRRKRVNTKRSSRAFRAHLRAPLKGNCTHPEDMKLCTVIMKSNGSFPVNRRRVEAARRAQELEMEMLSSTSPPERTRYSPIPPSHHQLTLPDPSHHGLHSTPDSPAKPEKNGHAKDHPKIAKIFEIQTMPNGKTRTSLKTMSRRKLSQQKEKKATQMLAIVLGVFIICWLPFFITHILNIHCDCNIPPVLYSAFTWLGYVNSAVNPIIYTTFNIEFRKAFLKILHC
Sequence of histamine receptor H1 (P35367 whole entry): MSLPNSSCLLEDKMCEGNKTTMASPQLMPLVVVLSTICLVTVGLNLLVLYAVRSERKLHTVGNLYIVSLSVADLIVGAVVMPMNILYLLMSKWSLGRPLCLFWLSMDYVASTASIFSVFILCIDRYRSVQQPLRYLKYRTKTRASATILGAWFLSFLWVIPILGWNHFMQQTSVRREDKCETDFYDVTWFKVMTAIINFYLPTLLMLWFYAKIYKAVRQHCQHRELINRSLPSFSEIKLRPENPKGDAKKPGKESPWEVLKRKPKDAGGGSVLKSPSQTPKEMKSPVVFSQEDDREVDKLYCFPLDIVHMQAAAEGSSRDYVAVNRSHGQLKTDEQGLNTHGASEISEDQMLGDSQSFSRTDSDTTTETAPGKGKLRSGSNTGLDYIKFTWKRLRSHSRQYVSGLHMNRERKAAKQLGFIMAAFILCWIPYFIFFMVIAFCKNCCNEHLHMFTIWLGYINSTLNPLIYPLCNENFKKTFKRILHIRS

## Cc1ccc2c(c1)c1c(n2/C=C(\CC(=O)O)c2ccc(F)cc2)CCN(C)C1 [Compound 209, (E)-4-(2,8-dimethyl-3,4-dihydro-1H-pyrido[4,3-b]indol-5(2H)-yl)-3-(4-fluorophenyl)but-3-enoic acid]
[1]; [5]
  inhibition at 1 µM: 59%
[2]
  inhibition at 1 µM: 9%
[3]; [6]
  inhibition at 1 µM: 7%
[4]; [7]
  inhibition at 1 µM: 95%

## C/C(=C\n1c2c(c3cc(Cl)ccc31)CN(C)CC2)c1ccc(Cl)cc1Cl [Compound 210, (E)-8-chloro-5-(2-(2,4-dichlorophenyl)prop-1-enyl)-2-methyl-2,3,4,5-tetrahydro-1H-pyrido[4,3-b]indole]
[1]; percent inhibition of specific binding, 1 µM
  Inhibition of ligand binding, Adrenergic α2B: 102%
[2]
  Histamine Binding (1 μM) H1, percent inhibition of specific binding: 53%
[3]; [8]
  Inhibition of ligand binding, Dopamine D2L: 52%
[4]
  Inhibition of ligand binding, Serotonin 5-HT2C (percent inhibition of specific binding): 99%

## C/C(=C\n1c2c(c3cc(C)ccc31)CN(C)CC2)c1ccc(Cl)cc1 [Compound 211, (E)-5-(2-(4-chlorophenyl)prop-1-enyl)-2,8-dimethyl-2,3,4,5-tetrahydro-1H-pyrido[4,3-b]indole]
[1]; [5]
  inhibition at 1 µM: 114%
[2]
  Histamine Binding (1 μM) H1, percent inhibition of specific binding: 54%
  inhibition at 1 µM: 53%
[3]; [8]
  Inhibition of ligand binding, Dopamine D2L: 49%
[3]; [6]
  inhibition at 1 µM: 39%
[4]; compound at 0.1 μM, read-out: Inhibition of ligand binding, Serotonin 5-HT2C (percent inhibition of specific binding)
  inhibition at 0.1 µM: 98%
[4]; [7]
  inhibition at 1 µM: 107%

## C/C(=C/n1c2c(c3cc(Cl)ccc31)CN(C)CC2)c1ccccc1F [Compound 212, (Z)-8-chloro-5-(2-(2-fluorophenyl)prop-1-enyl)-2-methyl-2,3,4,5-tetrahydro-1H-pyrido[4,3-b]indole]
[1]; [5]
  inhibition at 1 µM: 105%
[2]
  inhibition at 1 µM: 70%
[3]; [6]
  inhibition at 1 µM: 32%
[4]; [7]
  inhibition at 1 µM: 104%

## C/C(=C\n1c2c(c3cc(Cl)ccc31)CN(C)CC2)c1ccccc1F [Compound 213, (E)-8-chloro-5-(2-(2-fluorophenyl)prop-1-enyl)-2-methyl-2,3,4,5-tetrahydro-1H-pyrido[4,3-b]indole]
[1]; [5]
  inhibition at 1 µM: 103%
[2]
  inhibition at 1 µM: 69%
[3]; [6]
  inhibition at 1 µM: 76%
[4]; [7]
  inhibition at 1 µM: 102%

## CN1CCc2c(c3cc(Cl)ccc3n2C2=C(c3cccnc3)CCCC2)C1 [Compound No. 166, 8-chloro-2-methyl-5-(2-(pyridin-3-yl)cyclohex-1-enyl)-2,3,4,5-tetrahydro-1H-pyrido[4,3-b]indole]
[1]; [5]
  inhibition at 1 µM: 63%
[2]
  inhibition at 1 µM: 14%
[3]; [6]
  inhibition at 1 µM: -2%
[4]; [7]
  inhibition at 1 µM: 46%

## Cc1ccc2c(c1)c1c(n2CC(O)(c2ccccc2)c2ccc(F)cc2)CCN(C)C1 (centres unmarked) [Compound No. 176, 2-(2,8-dimethyl-3,4-dihydro-1H-pyrido[4,3-b]indol-5(2H)-yl)-1-(4-fluorophenyl)-1-phenylethanol]
[1]; [5]
  inhibition at 1 µM: 95%
[2]
  inhibition at 1 µM: 21%
[3]; [6]
  inhibition at 1 µM: 6%
[4]; [7]
  inhibition at 1 µM: 99%

## CCOC(=O)/C=C(/Cn1c2c(c3cc(C)ccc31)CN(C)CC2)c1ccccc1 [Compound No. 347, (E)-ethyl 4-(2,8-dimethyl-3,4-dihydro-1H-pyrido[4,3-b]indol-5(2H)-yl)-3-phenylbut-2-enoate]
[1]; [5]
  inhibition at 1 µM: 111%
[2]
  Histamine Binding (1 μM) H1, percent inhibition of specific binding: 56%
  inhibition at 1 µM: 42%
[3]; [8]
  Inhibition of ligand binding, Dopamine D2L: 30%
[3]; [6]
  inhibition at 1 µM: 27%
[4]; [7]
  inhibition at 1 µM: 104%

## CN1CCc2c(c3cc(Cl)ccc3n2C/C(=C\CCO)c2ccc(F)cc2)C1 [Compound No. 348, (Z)-5-(8-chloro-2-methyl-3,4-dihydro-1H-pyrido[4,3-b]indol-5(2H)-yl)-4-(4-fluorophenyl)pent-3-en-1-ol]
[1]; [5]
  inhibition at 1 µM: 105%
[2]
  Histamine Binding (1 μM) H1, percent inhibition of specific binding: 38%
  inhibition at 1 µM: 32%
[3]; [8]
  Inhibition of ligand binding, Dopamine D2L: 29%
[3]; [6]
  inhibition at 1 µM: 18%
[4]
  Inhibition of ligand binding, Serotonin 5-HT2C (percent inhibition of specific binding): 95%
[4]; [7]
  inhibition at 1 µM: 91%

## CN1CCc2c(c3cc(Cl)ccc3n2C/C(=C/CCO)c2ccc(F)cc2)C1 [Compound No. 349, (E)-5-(8-chloro-2-methyl-3,4-dihydro-1H-pyrido[4,3-b]indol-5(2H)-yl)-4-(4-fluorophenyl)pent-3-en-1-ol]
[1]; [5]
  inhibition at 1 µM: 102%
[2]
  Histamine Binding (1 μM) H1, percent inhibition of specific binding: 65%
  inhibition at 1 µM: 53%
[3]; [8]
  Inhibition of ligand binding, Dopamine D2L: 46%
[3]; [6]
  inhibition at 1 µM: 34%
[4]
  Inhibition of ligand binding, Serotonin 5-HT2C (percent inhibition of specific binding): 98%
[4]; [7]
  inhibition at 1 µM: 96%

## CCOC(=O)/C=C(/Cn1c2c(c3cc(C)ccc31)CN(C)CC2)c1ccc(F)cc1 [Compound No. 350, (E)-ethyl 4-(2,8-dimethyl-3,4-dihydro-1H-pyrido[4,3-b]indol-5(2H)-yl)-3-(4-fluorophenyl)but-2-enoate]
[1]; [9]
  inhibition at 1 µM: 107%
[2]
  Histamine Binding (1 μM) H1, percent inhibition of specific binding: 37%
  inhibition at 1 µM: 27%
[3]; […] [3H]Spiperone
  Inhibition of ligand binding, Dopamine D2L (percent inhibition of specific binding): 21%
[3]; [10]
  inhibition at 1 µM: 12%
[4]; [7]
  inhibition at 1 µM: 87%

## CCC/C=C(/Cn1c2c(c3cc(Cl)ccc31)CN(C)CC2)c1ccc(F)cc1 [Compound No. 351, (E)-8-chloro-5-(2-(4-fluorophenyl)hex-2-enyl)-2-methyl-2,3,4,5-tetrahydro-1H-pyrido[4,3-b]indole]
[1]; [9]
  inhibition at 1 µM: 99%
[2]
  Histamine Binding (1 μM) H1, percent inhibition of specific binding: 80%
  inhibition at 1 µM: 78%
[3]; […] [3H]Spiperone
  Inhibition of ligand binding, Dopamine D2L (percent inhibition of specific binding): 80%
[3]; [10]
  inhibition at 1 µM: 70%
[4]; [7]
  inhibition at 1 µM: 101%

## Cc1ccc2c(c1)c1c(n2C/C(=C/C(=O)O)c2ccc(F)cc2)CCN(C)C1 [Compound No. 352, (E)-4-(2,8-dimethyl-3,4-dihydro-1H-pyrido[4,3-b]indol-5(2H)-yl)-3-(4-fluorophenyl)but-2-enoic acid]
[1]; [9]
  inhibition at 1 µM: 47%
[2]
  inhibition at 1 µM: 4%
[3]; [10]
  inhibition at 1 µM: 0%
[4]; [7]
  inhibition at 1 µM: 93%

## CN1CCc2c(c3cc(Cl)ccc3n2C#Cc2ccc(F)cc2)C1 [Compound No. 475, 8-chloro-5-((4-fluorophenyl)ethynyl)-2-methyl-2,3,4,5-tetrahydro-1H-pyrido[4,3-b]indole]
[1]; [9]
  inhibition at 1 µM: 106%
[2]
  inhibition at 1 µM: 34%
[3]; [10]
  inhibition at 1 µM: 95%
[4]; [7]
  inhibition at 1 µM: 96%

## Cc1ccc2c(c1)c1c(n2C#Cc2ccc(C)nc2)CCN(C)C1 [Compound No. 476, 2,8-dimethyl-5-((6-methylpyridin-3-yl)ethynyl)-2,3,4,5-tetrahydro-1H-pyrido[4,3-b]indole]
[1]; [9]
  inhibition at 1 µM: 87%
[2]
  inhibition at 1 µM: 27%
[3]; [10]
  inhibition at 1 µM: 19%
[4]; [7]
  inhibition at 1 µM: 95%

## COc1ccc(C#Cn2c3c(c4cc(Cl)ccc42)CN(C)CC3)cc1F [Compound No. 477, 8-chloro-5-((3-fluoro-4-methoxyphenyl)ethynyl)-2-methyl-2,3,4,5-tetrahydro-1H-pyrido[4,3-b]indole]
[1]; [9]
  inhibition at 1 µM: 107%
[2]
  inhibition at 1 µM: 17%
[3]; [10]
  inhibition at 1 µM: 25%
[4]; [7]
  inhibition at 1 µM: 99%

## Cc1ccc2c(c1)c1c(n2C#Cc2ccc(F)cc2)CCN(C)C1 [Compound No. 478, 5-((4-fluorophenyl)ethynyl)-2,8-dimethyl-2,3,4,5-tetrahydro-1H-pyrido[4,3-b]indole]
[1]; [9]
  inhibition at 1 µM: 106%
[2]
  inhibition at 1 µM: 28%
[3]; [10]
  inhibition at 1 µM: 89%
[4]; [7]
  inhibition at 1 µM: 110%
